Assay results reported in article PMC12634411, “Phase Ib study of berzosertib, carboplatin, gemcitabine, and pembrolizumab in patients with squamous nonsmall lung cancer (ETCTN 10313)” (The Oncologist, 2025).
Where “and” joins values, the source holds several entries; their conditions need not be identical. Equal values may be shown once. Each block holds one compound with its values, some of them ahead of it.

Assays:
[1] = Gemcitabine (dFdC) and metabolite (dFdU) plasma pharmacokinetics, phase Ib trial; conditions: geometric mean (SD)
From the text: Primary endpoint was the recommended phase II dose (RP2D). Antitumor activity and pharmacokinetics were secondary endpoints. […] Clinicaltrials.gov Identifier: NCT04216316.
(§1) Antitumor activity and pharmacokinetics were secondary endpoints.

[2] = system: advanced urothelial carcinoma; set-up: method as in PMID 34436521; conditions: gemcitabine and cisplatin plus berzosertib, phase II; cited from earlier work
[3] = system: newly diagnosed advanced squamous NSCLC; assay: Antitumor activity (RECIST 1.1), PFS, OS, ORR; assay type: in vivo, human; conditions: gemcitabine, pembrolizumab
From the text: (§2) Primary endpoint was the recommended phase II dose (RP2D). Antitumor activity and pharmacokinetics were secondary endpoints. Results Twelve patients were enrolled and treated. […] Five of eleven evaluable patients (46%) experienced partial response. […] Clinicaltrials.gov Identifier: NCT04216316.
as §1

[4] = system: p-Chk1 (Chk1, a primary downstream target of ATR); conditions: reported value, no reference given; cited from earlier work
[5] = Berzosertib plasma pharmacokinetics, phase Ib trial; conditions: for Cmax: human, plasma, iv, 135 mg/m2, Cmax, geometric mean (SD)
From the text: Due to the limited sampling, the most reliable PK parameter assessed was Cmax.

[6] = system: patients with advanced solid tumors; set-up: method as in PMID 32568634; conditions: berzosertib 90-240 mg/m^2 and carboplatin AUC 4-5, 23 patients; cited from earlier work
[7] = system: ATM-deficient NSCLC tumors; set-up: method as in PMID 26517239; conditions: combination of ceralasertib (AZD6738) and cisplatin, xenograft models; cited from earlier work
[8] = system: patients with newly diagnosed advanced squamous NSCLC; assay: Phase Ib safety and tolerability: dose-limiting toxicity, treatment-related adverse events, RP2D; assay type: in vivo, human; conditions: four-drug combination, carboplatin Day 1 of 3-week cycle
From the text: as §2, §1
Twelve patients were enrolled and treated in phase Ib. […] The former patient passed away at home after having received cycle 1 Day 9 of therapy and causality was based on clinical history. While this event is not typical of the components of this regimen, we conservatively determined the event to be at least possible related to the platinum backbone of therapy and deemed this a DLT. […] Most common treatment-related adverse events (TRAEs) were anemia (83%), neutropenia (83%), leukopenia (83%), thrombocytopenia (58%), ALT increase (50%), lymphopenia (50%), and nausea (50%).

dFdC Cmax ([1]; Dose level 1, gemcitabine 800 mg/m^2, N = 6, plasma): 9.29 (1.51) mg/L
dFdC Cmax ([1]; Dose level −1, gemcitabine 800 mg/m^2, N = 6, plasma): 11.2 (1.12) mg/L
dFdC Cmax ([1]; Total N = 12, gemcitabine 800 mg/m^2, plasma): 10.2 (1.35) mg/L
Structure (SMILES): Nc1ccn([C@@H]2O[C@H](CO)[C@@H](O)C2(F)F)c(=O)n1 [gemcitabine]

Cmax/Dose ([5]; Dose level 1, 135 mg/m^2, N = 6, Day 2 of cycle 1, geometric mean (SD)): 5.18 (1.34) µg/L/mg/m^2
Cmax/Dose ([5]; Dose level −1, 135 mg/m^2, N = 6, Day 2 of cycle 1, geometric mean (SD)): 4.74 (1.31) µg/L/mg/m^2
Cmax/Dose ([5]; Total N = 12, Day 2 of cycle 1, geometric mean (SD)): 4.99 (1.31) µg/L/mg/m^2
Cmax ([5]; Dose level 1, 135 mg/m^2 IV, N = 6, Day 2 of cycle 1, plasma): 700 ng/mL
Cmax ([5]; Dose level −1, 135 mg/m^2 IV, N = 6, Day 2 of cycle 1, plasma): 640 ng/mL
Cmax ([5]; Total N = 12, 135 mg/m^2 IV, Day 2 of cycle 1, plasma): 669 ng/mL
Structure (SMILES): CNCc1ccc(-c2cc(-c3nc(-c4ccc(S(=O)(=O)C(C)C)cc4)cnc3N)on2)cc1 [Berzosertib]
survival with the addition of berzosertib vs gemcitabine and cisplatin alone [2]: inferior survival
ORR (partial response) ([3]; 5 of 11 evaluable patients, 95% CI: 16.7%, 76.6%, RECIST 1.1, combination with carboplatin): 46% and 45.5%
stable disease ([3]; 6 of 11 evaluable patients, 95 CI: 23.4%, 83.3%, combination with carboplatin): 54.5%
median PFS ([3]; 12 patients, 95% CI: 3, 13, median follow-up 17 months, combination with carboplatin): 9 months
median OS ([3]; 12 patients, 95% CI: 3, not reached, median follow-up 17 months, combination with carboplatin): 15 months
human equivalent p-Chk1 IC50 [4]: approximately 110 ng/mL
events of grade ≥3 nausea and vomiting [6]: no events
grade ≥3 neutropenia [6]: 22%

Structure (SMILES): C[C@@H]1COCCN1c1cc(C2([S@](C)(=N)=O)CC2)nc(-c2cc[nH]c3nccc2-3)n1 [ceralasertib]
effect on ATM-deficient NSCLC tumors [7]: near-complete resolution

Structure (SMILES): N.N.O=C([O-])C1(C(=O)[O-])CCC1.[Pt+2] [carboplatin]
recommended phase II dose (RP2D) [8]: 4 AUC
